Assays:
Type in all cases: cell-based
[1] = tested on: human X-ALD primary skin fibroblasts; experiment: Immunofluorescence peroxisome counting; conditions: for peroxisome number, Increase / peroxisome number, Treated: 10 day exposure to 5 mM 4PBA
From the text: Peroxisomes were made visible with immunofluorescence using a polyclonal antibody to the C-terminal tripeptide (SKL) peroxisome targeting signal 1 (PTS1), which is present in most peroxisomal matrix proteins. […] Slides were scanned visually and cells categorized as having low, medium or high numbers of peroxisomes. For each cell line, the number of peroxisomes is the mean of three ‘low’, four ‘medium’ and three ‘high’ cells (Table 3). There was no difference between control cells and X-ALD cells in either the number of peroxisomes per cell or in the response to 4-PBA. […] The 2.4-fold increase in the number of peroxisomes per cell was statistically significant (P<0.0000001, two-tailed Student's t-test). Peroxisome numbers obtained with an antibody against a peroxisomal membrane protein (Pex14p) gave similar results (data not shown).
Immunofluorescence and peroxisome counting. […] The anti-SKL (PTSI) antibody was a gift from S. Gould and the anti-Pex11α antibody was a gift from S. Mihalik. To count peroxisomes, we photographed immunofluorescence-stained cells after focusing on the cell nucleus, and determined the peroxisome number per cell with the aid of a colon counter after projecting the slides to enlarge the image.

ALDRP = experiment: Western blot with densitometry relative to β-actin; conditions: normal mouse fibroblasts, after 10 days of exposure; data not shown
From the text: Open bars, untreated cells; hatched bars, treated cells.
These findings indicate that ALDP1 and ALDRP may occupy equivalent domains within the peroxisomal membrane. This would agree with the observation that ALDP and ALDRP are generally expressed in different cell types.
Western blot analysis. Tissue culture cells were scraped from tissue culture dishes using a policeman, into cold PBS solution and protease inhibitor cocktail (Boehringer). Samples were mixed (1:1) with 2× sample buffer. Total protein samples were fractionated by SDS-PAGE using a 7.5% gel using the method of Laemmlis'. […] Enhanced chemiluminescence (SuperSignal Substrate; Pierce, Rockford, Ill.) was used to detect bound antibody.

PPARα = experiment: Semi-quantitative RT-PCR in primary fibroblasts
From the text: In rodents PPARα expression is increased by peroxisomal proliferators. […] Thus, although the peroxisome proliferation response in mice may be, at least in part, through the documented PPARα pathway, the response in human cells seems to be through a newly discovered pathway that may involve Pex11α. […] This again indicates a newly discovered pathway for 4-PBA-induced peroxisome proliferation in humans and perhaps in rodents. AOX has been identified as the rate-limiting step in VLCFA β-oxidation.
Semi-quantitative RT-PCR analysis. Total RNA from tissue culture cells (10^6-10^7 cells/sample) was isolated using TRizol Reagent™ (Life Technologies), treated with DNase I (100-200 units in 40 mM HCI, 10 mM NaCl, 6 mM MgCl2, pH 7.3), incubated at 37° C. for 30 min, extracted with phenol/chloroform, and precipitated with isopropanol. cDNA was generated using MMLV reverse transcriptase (RT) (Life Technologies). PCR was done in the linear range of amplification (determined for each primerpair-cDNA combination). For each cDNA sample, a ‘cocktail’ was prepared, containing PCR buffer (Promega), 200 µM of each DNTP, 1.5 mM MgCl2, 250 ng cDNA, 0.25 U of Taq polymerase (Promega) and […]. The ‘cocktail’ was divided into separate tubes containing cDNA specific primers.
Primers. The PCR primers used are listed below. […]

[2] = tested on: human primary fibroblasts; experiment: Phytanic acid oxidation ([2,3-3H]-phytanic acid, release of 3H-H2O); conditions: 5 mM 4-PBA for 10 days
From the text: The increase in phytanic acid oxidation activity was significant (P<0.001 5(n=4) for X-ALD primary fibroblasts and P<0.013 (n=3) for normal primary fibroblasts). […] The relative amount of SCP2 protein was compared to the housekeeping gene β-actin.
Phytanic acid oxidation occurs exclusively in the peroxisomal matrix and can therefore serve as a marker for peroxisomal function. […] SCP2 is a 15-kDa protein located exclusively in the peroxisomal matrix.
Biochemical measurements. […] For VLCFA measurements, total lipids were extracted, converted to methyl esters, purified by TLC and subjected to capillary GC analysis as described. Duplicate assays were set up independently and were assayed on different days. C24:0 β-oxidation activity of human and mouse fibroblasts and human lymphoblastoid cells was determined by measuring their capacity to degrade [1-^14C]-C24:0 fatty acid (American Radiolabeled Chemicals, St Louis, Mo.) to water-soluble products as described. Phytanic acid oxidation was measured as described. Cells were incubated with [2,3-^3H]-phytanic acid for 24 hours, and the release of ^3H-H2O to the aqueous medium was determined (activity in pmol/hr per mg protein).

[3] = cell line X-ALD (fs E471), first of two independent lines
[4] = cell line X-ALD (fs E471), second of two independent lines

## O=C(O)CCCc1ccccc1 [4-PBA, 4-Phenyl butyrate]
[1]; 5 mM 4-PBA, after 8 days of treatment
  peroxisome number seen by immunofluorescence: approximately twofold increase
[1]; Mean of five X-ALD cell lines
  peroxisome number, Increase: 2.5 fold
  peroxisome number, Treated: 1074 ± 92 peroxisomes per cell
[1]; X-ALD and control cell lines combined, 10 days 5 mM 4-PBA
  increase in number of peroxisomes per cell: 2.4 fold
[1]; cell line X-ALD (A626T)
  peroxisome number, Increase: 2.4 fold
  peroxisome number, Treated: 968 ± 349 peroxisomes per cell
[1]; cell line X-ALD (R591Q)
  peroxisome number, Increase: 2.8 fold
  peroxisome number, Treated: 1159 ± 363 peroxisomes per cell
[1]; cell line X-ALD (exon 7-10del)
  peroxisome number, Increase: 2.6 fold
  peroxisome number, Treated: 1164 ± 378 peroxisomes per cell
[1]; [3]
  peroxisome number, Increase: 2.2 fold
  peroxisome number, Treated: 992 ± 344 peroxisomes per cell
[1]; [4]
  peroxisome number, Increase: 2.7 fold
  peroxisome number, Treated: 1089 ± 365 peroxisomes per cell
[1]; five X-ALD and four control cell lines combined, 10 days 5 mM 4-PBA, 416±27 before exposure
  peroxisomes per cell after exposure, combined results: 1014±108 peroxisomes per cell
ALDRP
  ALDRP protein level: not increased
PPARα; human X-ALD fibroblasts, even after 10 days of treatment
  PPARα expression: unchanged
PPARα; mouse X-ALD fibroblasts, as early as 2 days after treatment
  PPARα expression: increased
[2]; X-ALD human primary fibroblasts
  phytanic acid oxidation: twofold increase
[2]; normal human primary fibroblasts
  phytanic acid oxidation: twofold increase
